Test results taken from paper PMC10624628 (2023).

Key:
[1] = test system: SAMURI / 17-mer substrate RNA (RNA, ribozyme) GGUUGAAGGCAUGGCUCAGGGACUUCGGUCCGCUGCAGUCAGUAUGUCC/ACAUACUGAGCCUUCAA; test: inhibition of SAMURI trans-propargylation, PAGE; conditions: 120 mM KCl, 5 mM NaCl, 10 mM MgCl2; pH 7.5, 37 °C, 1 h; no competition with 10 µM ProSeDMA up to 1 mM SAM; methylates substrate at 3 mM
[2] = test system: SAMURI / 17-mer substrate RNA (RNA, ribozyme) GGUUGAAGGCAUGGCUCAGGGACUUCGGUCCGCUGCAGUCAGUAUGUCC/ACAUACUGAGCCUUCAA; test: Michaelis-Menten fit of kobs, alkylation of Cy5-labelled substrate, denaturing PAGE; conditions: 120 mM KCl, 5 mM NaCl, 10 mM MgCl2; 50 mM HEPES, pH 7.5, 37 °C; apparent; 32.6 ± 2.2 µM at 0.5 mM Mg2+; covalent transfer to substrate

| binding [1] | Km,app [2] | SMILES |
| --- | --- | --- |
| weak | – | C[S+](CC[C@H](N)C(=O)O)C[C@H]1O[C@@H](n2cnc3c(N)ncnc32)[C@H](O)[C@@H]1O (some centres unmarked) |
| – | 8.9 ± 1.9 µM | C#CC[Se+](CCC(N)C(N)=O)C[C@H]1O[C@@H](n2cnc3c(N)nc(N)nc32)[C@H](O)[C@@H]1O (some centres unmarked) |
